Measured values as given in publication PMC3493679 (Hepatology (Baltimore, Md.), 2012).
Where two headings read alike, the source gives them in different places.

Key:
human Nox1 = target: T1, human Nox1 (Homo sapiens, UniProt Q9Y5S8); assay type: biochemical
T1 sequence (Q9Y5S8 1-564): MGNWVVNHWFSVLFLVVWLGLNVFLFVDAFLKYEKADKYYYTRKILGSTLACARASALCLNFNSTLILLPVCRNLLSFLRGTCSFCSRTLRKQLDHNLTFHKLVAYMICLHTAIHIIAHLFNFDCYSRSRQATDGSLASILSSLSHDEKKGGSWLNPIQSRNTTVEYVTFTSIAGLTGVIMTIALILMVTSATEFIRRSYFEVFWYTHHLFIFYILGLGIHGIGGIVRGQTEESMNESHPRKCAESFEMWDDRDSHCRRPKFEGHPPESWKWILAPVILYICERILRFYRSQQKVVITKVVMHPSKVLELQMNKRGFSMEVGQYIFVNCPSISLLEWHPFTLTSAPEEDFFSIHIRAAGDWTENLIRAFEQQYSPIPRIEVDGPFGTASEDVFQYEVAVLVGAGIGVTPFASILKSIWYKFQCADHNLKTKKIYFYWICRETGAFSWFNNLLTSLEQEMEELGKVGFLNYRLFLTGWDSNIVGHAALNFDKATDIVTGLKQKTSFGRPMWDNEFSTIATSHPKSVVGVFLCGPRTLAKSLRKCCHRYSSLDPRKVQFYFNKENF
T1 sequence (P13498 2-195 partner limits assumed): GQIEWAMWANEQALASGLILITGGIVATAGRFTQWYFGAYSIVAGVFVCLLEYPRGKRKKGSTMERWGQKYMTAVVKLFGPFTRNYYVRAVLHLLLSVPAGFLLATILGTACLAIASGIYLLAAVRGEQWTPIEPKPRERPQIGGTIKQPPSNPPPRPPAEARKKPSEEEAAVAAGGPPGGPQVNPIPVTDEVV

xanthine oxidase = xanthine oxidase (Homo sapiens, UniProt P47989); experiment: xanthine oxidase assay, same ROS read-out as NOX assays; assay type: biochemical
xanthine oxidase, sequence (P47989 whole entry, species assumed): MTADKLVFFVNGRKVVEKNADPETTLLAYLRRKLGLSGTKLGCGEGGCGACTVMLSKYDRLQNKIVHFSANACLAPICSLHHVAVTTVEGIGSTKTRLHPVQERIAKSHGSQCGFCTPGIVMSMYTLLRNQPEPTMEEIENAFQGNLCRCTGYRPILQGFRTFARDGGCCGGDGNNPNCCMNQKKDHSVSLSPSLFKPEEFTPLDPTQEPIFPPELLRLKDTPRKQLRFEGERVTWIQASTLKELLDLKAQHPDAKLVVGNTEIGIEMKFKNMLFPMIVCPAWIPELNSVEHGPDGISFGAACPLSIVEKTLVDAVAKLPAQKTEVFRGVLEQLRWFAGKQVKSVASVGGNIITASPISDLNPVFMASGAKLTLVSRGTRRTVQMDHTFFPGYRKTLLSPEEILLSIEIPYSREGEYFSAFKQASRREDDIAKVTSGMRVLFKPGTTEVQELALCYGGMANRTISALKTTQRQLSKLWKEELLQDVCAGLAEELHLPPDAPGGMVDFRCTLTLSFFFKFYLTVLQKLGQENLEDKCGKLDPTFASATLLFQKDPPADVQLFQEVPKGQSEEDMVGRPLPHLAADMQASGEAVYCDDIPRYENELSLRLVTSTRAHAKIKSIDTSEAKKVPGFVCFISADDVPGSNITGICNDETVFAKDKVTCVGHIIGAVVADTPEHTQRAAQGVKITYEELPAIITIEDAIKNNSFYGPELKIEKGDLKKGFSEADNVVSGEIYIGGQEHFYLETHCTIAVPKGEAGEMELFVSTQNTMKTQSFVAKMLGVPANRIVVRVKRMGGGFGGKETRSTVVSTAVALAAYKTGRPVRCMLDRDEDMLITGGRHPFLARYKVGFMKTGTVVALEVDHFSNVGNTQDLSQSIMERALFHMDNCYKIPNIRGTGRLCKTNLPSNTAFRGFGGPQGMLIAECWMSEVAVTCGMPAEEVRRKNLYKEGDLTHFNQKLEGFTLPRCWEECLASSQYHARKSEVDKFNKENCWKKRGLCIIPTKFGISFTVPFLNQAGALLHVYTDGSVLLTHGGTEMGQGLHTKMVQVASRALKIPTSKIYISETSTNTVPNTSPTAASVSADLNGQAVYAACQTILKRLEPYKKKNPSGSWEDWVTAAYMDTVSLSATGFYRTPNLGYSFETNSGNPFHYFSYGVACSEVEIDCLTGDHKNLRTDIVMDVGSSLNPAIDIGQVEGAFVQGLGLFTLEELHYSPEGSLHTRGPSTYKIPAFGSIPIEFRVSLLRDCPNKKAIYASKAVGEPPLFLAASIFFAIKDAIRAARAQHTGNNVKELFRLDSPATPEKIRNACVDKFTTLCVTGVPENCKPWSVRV

[1] = test system: NOX2-driven neutrophil oxidative burst; experiment: neutrophil oxidative burst by flow cytometry in human whole blood; assay type: cell-based; details: up to 100uM
[2] = test system: CCl4-induced liver fibrosis; experiment: CCl4 model of liver fibrosis; assay type: in vivo, mice
[3] = test system: BDL-induced hepatic fibrosis; experiment: bile duct ligation; assay type: in vivo; details: WT and SOD1mu mice, 60 mg/kg daily from day 11
activated HSCs = experiment: gene expression in culture-activated primary HSCs; assay type: cell-based, mouse; details: 20 μM
colI-GFP HSCs = experiment: collagen promoter-driven GFP expression in HSCs; assay type: cell-based, mouse; details: SOD1mu and WT HSCs, Ang II 10^−6 M, 20 μM, 24 hours
HSCs [4] = experiment: ROS generation in DCFDA-loaded HSCs; assay type: cell-based, mouse; details: SOD1mu and WT HSCs, Ang II 10^−6 M, 20 μM
Rac1 = Rac1 G-LISA activation assay in HSCs; assay type: cell-based, mouse; details: WT and SOD1mu HSCs, 20 μM, 24 hours
HSCs [5] = experiment: gene expression in Ang II stimulated HSCs; assay type: cell-based, mouse; details: Ang II 10^−6 M, 20 μM, 24 hours
170 different proteins = experiment: in vitro off-target pharmacological profile; details: tested at 10 μM
human Nox4 = target: T2, human Nox4 (Homo sapiens, UniProt Q9NPH5); assay type: biochemical; details: read-out: Ki on Nox4; cell free membrane assay
T2 sequence (Q9NPH5 1-578): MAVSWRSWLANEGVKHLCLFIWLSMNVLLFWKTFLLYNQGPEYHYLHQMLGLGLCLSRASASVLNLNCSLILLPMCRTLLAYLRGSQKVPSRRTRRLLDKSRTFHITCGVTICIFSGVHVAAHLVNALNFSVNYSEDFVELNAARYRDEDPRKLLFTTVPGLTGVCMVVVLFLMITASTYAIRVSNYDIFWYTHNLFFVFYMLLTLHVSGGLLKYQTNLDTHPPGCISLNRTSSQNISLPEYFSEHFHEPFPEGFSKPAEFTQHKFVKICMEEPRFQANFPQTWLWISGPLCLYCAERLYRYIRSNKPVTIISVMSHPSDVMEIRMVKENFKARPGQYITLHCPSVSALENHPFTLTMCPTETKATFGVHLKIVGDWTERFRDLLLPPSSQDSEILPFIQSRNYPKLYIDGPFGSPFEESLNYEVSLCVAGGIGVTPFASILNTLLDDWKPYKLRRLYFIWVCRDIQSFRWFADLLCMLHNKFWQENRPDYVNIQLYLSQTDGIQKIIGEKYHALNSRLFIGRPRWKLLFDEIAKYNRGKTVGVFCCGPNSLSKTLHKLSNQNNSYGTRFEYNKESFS
T2 sequence (P13498 2-195 partner limits assumed): T1 sequence (P13498 2-195 partner limits assumed)

[6] = CCl4 treated SOD1mu mice, 60 mg/kg daily
[7] = SOD1mu and WT mice, 60 mg/kg daily

For `CN(C)c1cccc(-c2c3c(=O)n(-c4ccccc4Cl)[nH]c3cc(=O)n2C)c1` [GKT137831, 2-(2-chlorophenyl)-4-[3-(dimethylamino)phenyl]-5-methyl-1H-pyrazolo[4,3-c]pyridine-3,6(2H,5H)-dione], the Ki (human Nox1) was 110 ± 30 nM, the Ki (xanthine oxidase) was over 100000 nM and the “scavenging of superoxide (O2•−)” value (xanthine oxidase) was “inability to scavenge superoxide”. The “inhibition of neutrophil oxidative burst” value [1] was “did not significantly inhibit”, the “liver inflammation and injury” value ([2]; CCl4 treated SOD1mu and WT mice, 60 mg/kg daily) was “inhibited to similar lower levels” and the “hepatic 4-HNE levels” value [2, 6] was “suppressed”. For the same compound, the “hepatic MDA levels (TBARS)” value [2, 6] was “suppressed”, the “hepatic mRNA expression of TNF-α” value [2, 6] was “suppressed” and the “serum ALT levels” value [2, 6] was “reduced”. The “macrophage infiltration and activation (F4/80, CD68)” value ([2]; CCl4 treated mice, 60 mg/kg daily) was “prevented macrophage infiltration and activation”, the “hepatic collagen deposition (Sirius red staining)” value [2, 7] was “reduced” and the “hepatic mRNAs of collagen α1(I), TIMP-1 and TGF-β” value [2, 7] was “reduced the induction of those genes to the same lower levels”. For the same compound, the CCl4-induced liver fibrosis ([2]; SOD1mu and WT mice, 60 mg/kg intragastric daily, last half of CCl4 treatment) was “attenuated”, the “hepatic α-SMA expression” value ([2]; SOD1mu mice, immunohistochemistry and immunoblotting, 60 mg/kg daily) was “markedly decreased” and the BDL-induced hepatic fibrosis [3] was “decreased”. For the same compound, the “NOX4 and NOX1 mRNA expression” value (activated HSCs; activated SOD1mu HSCs) was “suppressed”, the “collagen α1(I) and Acta2 mRNA expression” value (activated HSCs; activated SOD1mu and WT HSCs) was “reduced” and the “Ang II induced GFP fluorescence (collagen α1(I) promoter)” value (colI-GFP HSCs) was “suppressed”. The “Ang II induced ROS generation” value (HSCs [4]) was “suppressed”, the “Rac1 activity after Ang II stimulation” value (Rac1) was “no effect” and the “Ang II induced NOX1 and NOX4 mRNA expression” value (HSCs [5]; SOD1mut and WT HSCs) was “suppressed”. For the same compound, the “Ang II induced collagen α1(I) and TIMP-1 mRNA expression” value (HSCs [5]; WT and SOD1mu HSCs) was “blocked” and the “inhibition of off-target proteins” value (170 different proteins) was “did not show any significant inhibition of any tested target protein”.

`c1ccc([I+]c2ccccc2)cc1` [DPI, Diphenyliodonium, reference compound] showed a Ki (human Nox4) of 70 ± 10 nM and a Ki (xanthine oxidase; read-out: Ki on xanthine oxidase) of 50 nM.
